Experimental data as given in patent publication US12084610B2, “Compositions and methods for reducing deleterious atmospheric gas emissions from flooded ecosystems” (Arkea Bio Corp., priority 2022, dated 2024).

What was measured:
[1] = 3-NOP pH and temperature stability (HPLC); format: physicochemical; settings: 1-month time period, temperature 4-30 C, pH 4-10
Excerpt: 3-NOP pH and Temperature Stability: Confirmed via HPLC over a 1-month time period at temperature between 4-30 C and pH 4-10.

[2] = 3-NOP volatility (mass loss open to air); format: physicochemical; settings: 500 mg in 5 dram vial open to air, ~18-24 C, 15-30% RH, 6 days
Experimental: 3-NOP Volatility: 500 mg of 3-NOP in a 5 dram vial was left open to air at ˜18-24 C at 15-30% RH over the course of 6 days. Average mass loss is ˜0.25% per day.

O=[N+]([O-])OCCCO [Formula 3-NOP, 3-nitrooxypropanol]
3-NOP pH and Temperature Stability [1]: Confirmed
Average mass loss (volatility) [2]: ~0.25 % per day
